Assay results published in patent publication US4557934A, “Penetrating topical pharmaceutical compositions containing 1-dodecyl-azacycloheptan-2-one” (priority 1983, dated 1985).

Experiments:
[1] = clindamycin phosphate, erythromycin base, fusidate sodium, fluorouracil, desonide, amcinonide and triamcinolone acetonide; cited from earlier work
rats = details: cited from earlier work
[2] = Penetration study through human skin, Franz diffusion apparatus; type: in vitro ADME; details: for reduction of penetration on addition, in words (compared with octanoic acid): Example 8
Source text: EtOH is ethanol. The term mcg=microgram.

Q: For `CCCCCCCCCCCCN1CCCCCC1=O` [Azone, 1-dodecyl-azacycloheptan-2-one], which “enhancement of cutaneous penetration” value [1] is on record?
A: The value was “enhance the cutaneous penetration”.

Q: And the order of toxicity (rats; rat, in vivo)?
A: Its order of toxicity is “low order of toxicity”.

Q: And the “lethal dose for 50% survival (LD50)” value (rats; rats)?
A: The value was “about 8 g/kg”.

Q: With `CCCCCCCCCCCCCCCCO` [cetyl alcohol] as the compound, how does the “reduction of penetration on addition, in words (compared with octanoic acid)” value (shortened to “reduction … (compared with octanoic acid)”) [2] read?
A: Its value is “Substantially similar results”.

Q: With `CCCCCCCCCC(=O)O` [decanoic acid] as the compound, how does the “reduction … (compared with octanoic acid)” value [2] read?
A: The value was “Substantially similar results”.

Q: Which “reduction of penetration on addition to triamcinolone / propylene glycol / C14 OH composition” value ([2]; Example 8, 0-72 hrs, 4% octanoic acid) does the source give for `CCCCCCCC(=O)O` [octanoic acid] here?
A: Its value is 50%.

Q: With `CCCCCCCCCCCCCCCCCCO` [steryl alcohol] as the compound, how does the “reduction … (compared with octanoic acid)” value [2] read?
A: The value was “Substantially similar results”.
